This is an account of results in patent US20080039444A1, “COMPOUNDS” (GLAXO GROUP LIMITED, priority 2006, published 2008).

The target in assay [1] is T1, human H1 receptor (Homo sapiens, UniProt P35367).
T1 construct: expressed in transfected cells
The experiment in a line: Histamine H1 functional antagonist assay (FLIPR): determination of functional pKi values. In kind it is cell-based. The conditions noted are these: CHO cells expressing human H1, histamine at EC80; read-out: average pKi (pKb) at H1 (converted). An excerpt: H1 receptor cell line generation and FLIPR assay protocol
1. Generation of histamine H1 cell line
(§1) The human H1 receptor is cloned using known procedures described in the literature [Biochem. Biophys. Res. Commun., 201(2):894 (1994)]. Chinese hamster ovary (CHO) cells stably expressing the human H1 receptor are generated according to known procedures described in the literature [Br. J. Pharmacol., 117(6):1071 (1996)].
Histamine H1 functional antagonist assay: Determination of functional pKi values […]
10 μl of test compound, diluted to the required concentration in Tyrodes buffer+probenecid (or 10 μl Tyrodes buffer+probenecid as a control) is added to each well and the plate is incubated for 30 min at 37° C., 5% CO2. The plates are then placed into a FLIPR™ (Molecular Devices, UK) to monitor cell fluorescence (λex=488 nm, αEM=540 nm) in the manner described in Sullivan et al., (In: Lambert DG (ed.), Calcium Signaling Protocols, New Jersey: Humana Press, 1999, 125-136) before and after the addition of 10 μl histamine at a concentration that results in the final assay concentration of histamine being EC80.
Functional antagonism is indicated by a suppression of histamine induced increase in fluorescence, as measured by the FLIPR™ system (Molecular Devices). By means of concentration effect curves, functional affinities are determined using standard pharmacological mathematical analysis.

For assay [2], the target named is T1, human H1 receptor. Kind of assay: Histamine H1 functional antagonist assay (FLIPR): determination of antagonist pA2. In kind it is cell-based. As to the method: as §1
Histamine H1 functional antagonist assay: Determination of antagonist pA2 and duration
The histamine H1 receptor expressing CHO cells are seeded into non-coated black-walled clear bottom 96-well tissue culture plates as described above. Following overnight culture, growth medium is removed from each well, washed with 200 μl phosphate buffered saline (PBS) and is replaced with 50 μl loading dye (250 μM Brilliant Black, 1 μM Fluo-4 diluted in Tyrodes buffer+probenecid (145 mM NaCl, 2.5 mM KCl, 10 mM HEPES, 10 mM D-glucose, 1.2 mM MgCl2, 1.5 mM CaCl2, 2.5 mM probenecid, pH adjusted to 7.40 with NaOH 1.0 M)). Cells are incubated for 45 min at 37° C. The loading buffer is removed and the cells are washed as above, and 90 μl of Tyrodes buffer+probenecid is added to each well. 10 μl of test compound, diluted to the required concentration in Tyrodes buffer+probenecid (or 10 μl Tyrodes buffer+probenecid as a control) is added to each well and the plate is incubated for 30 min at 37° C., 5% CO2. The plates are then placed into a FLIPR™ (Molecular Devices, UK) to monitor cell fluorescence (λex=488 nm, λEM=540 nm) in the manner described in Sullivan et al., (In: Lambert DG (ed.), Calcium Signaling Protocols, New Jersey: Humana Press, 1999, 125-136) before and after the addition of 50 μl histamine over a concentration range of 1 mM-0.1 nM. The resultant concentration response curves are analysed by non-linear regression using a standard four parameter logistic equation to determine the histamine EC50, the concentration of histamine required to produce a response of 50% of the maximum response to histamine. The antagonist pA2 is calculated using the following standard equation: pA2=log(DR-1)- log[B] where DR=dose ratio, defined as EC50antagonist-treated/EC50control and [B]=concentration of antagonist.

Molecules are shown by their SMILES.

T1 sequence (P35367 whole entry): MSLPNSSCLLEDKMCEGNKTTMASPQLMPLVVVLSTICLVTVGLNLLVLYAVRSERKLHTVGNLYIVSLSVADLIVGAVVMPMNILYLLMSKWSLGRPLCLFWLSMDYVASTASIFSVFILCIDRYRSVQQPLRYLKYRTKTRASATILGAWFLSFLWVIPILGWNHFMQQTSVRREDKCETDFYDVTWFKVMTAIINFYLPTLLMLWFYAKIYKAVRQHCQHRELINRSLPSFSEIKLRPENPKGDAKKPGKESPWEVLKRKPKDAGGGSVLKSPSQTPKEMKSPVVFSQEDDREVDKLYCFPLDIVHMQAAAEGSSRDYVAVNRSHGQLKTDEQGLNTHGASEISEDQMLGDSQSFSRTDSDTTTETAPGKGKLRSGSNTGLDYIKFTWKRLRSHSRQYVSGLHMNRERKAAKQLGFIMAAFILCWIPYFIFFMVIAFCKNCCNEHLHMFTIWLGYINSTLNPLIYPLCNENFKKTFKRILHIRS

By Kb is commonly meant the equilibrium dissociation constant of an antagonist, usually derived from a functional assay. On to `O=c1c2ccccc2c(Cc2ccc(Cl)cc2)nn1C[C@H]1CCCN1CCCCc1ccc(OCCCN2CCCCCC2)cc1` [Example 24, 4-[(4-Chlorophenyl)methyl]-2-({(2R)-1-[4-(4-{[3-(hexahydro-1H-azepin-1-yl)propyl]oxy}phenyl)butyl]-2-pyrrolidinyl}methyl)-1(2H)-phthalazinone free base], for which, at human H1 receptor [1], the Ki is around 15.8 nM. At human H1 receptor [2], this molecule had a Kb of around 1.26 nM.
